Assay results reported in patent publication US11401516B2, “Channel modulators” (AUCKLAND UNISERVICES LIMITED, priority 2014, dated 2022).
Where a SMILES comes first, the peptide text is derived from it. Where no end group is shown, it is not given here. didodecyl = two dodecyl groups (C12-C12) conjugated at the N terminus

How the values were obtained:
[1] = biological target: Cxn43 (Rattus norvegicus, UniProt P08050); experiment: Retinal ischemia reperfusion (glaucoma model), Cxn43 quantification; format: in vivo, Wistar rats; conditions: 8 hr after ischemia
Method: (§1) The effects of chemical modification and particulate formulation delivery were measured on rats modelled for glaucoma with a retinal ischemia reperfusion. First, a retinal ischemia reperfusion model was created. A total of 121 adult male Wistar rats weighing 200 to 300 g were used for the study. Retinal ischemia was modeled in the left eye (120 mmHg for 60 min), with the right eye as the control, and then the connexin 43 modulator peptide formulations were injected intravitreally immediately as solutions in 1×PBS delivery agent. The connexin 43 modulator peptide used was SEQ-Pept5, in both its unmodified and chemically modified (didodecyl) forms. The formulations used were neat (just diluted in 1×PBS delivery media) solutions of nanoparticles or microparticles. After reperfusion, Evan's blue dye was injected intraperitoneally 4 hr after reperfusion to visualize vessel leak using confocal microscopy. Retinal whole mounts were collected at 8 hr and 28 days for Cxn43 quantitification, and 28 and 90 days for gangliol cell (RGC) density quantification.

[2] = tested on: retinal vessel leak; experiment: Retinal ischemia reperfusion (glaucoma model), vessel leak with Evan's blue dye; format: in vivo, Wistar rats; conditions: 4 hr post-ischemia, intravitreal
Method: as §1

[3] = tested on: Retinal ganglion cell; experiment: Retinal ischemia reperfusion (glaucoma model), RGC count; format: in vivo, Wistar rats; conditions: after 28 days
Method: as §1

[4] = biological target: T1, Connexin43 hemichannel (Homo sapiens, UniProt P17302); experiment: Whole-cell voltage clamp, Connexin43 transfected HeLa cells; format: cell-based; conditions: voltage steps; peptide5 100 μM; carbenoxolone and LaCl3 concentration not stated
T1 construct: expressed in transfected cells; host or cells: HeLa (connexin-deficient parent), Cx43IRESeGFP, puromycin selection
Method: Whole-cell voltage clamp studies were conducted on connexin deficient HeLa cells, Connexin43 transfected HeLa cells and isolated human cerebral microvascular endothelial cells (hCMVEC).
HeLa cells were seeded at 0.045×10^6 cells/mL on 18 mm rat collagen I coated coverslips 16-24 hours before each experiment. Cx43IRESeGFP HeLa cells were cultured overnight in DMEM supplemented with 10% FCS and 1 μg/mL Puromycin at 37° C. at 95% O2 and 5% CO2. Control Cx-deficient cells were maintained in DMEM supplmented with 10% FCS. Coverslips were transferred to a chamber continuously perfused with modified Krebs-Ringer solution containing (in mM): 140 NaCl, 5.4 KCl, 1 MgCl2, 10 mM Hepes and pH adjusted to 7.4 at room temperature. The internal pipette solution contained (in mM): 130 KCl, 10 sodium aspartate, 0.26 CaCl2, 2 EGTA, 5 tetraethylammonium-Cl, 1 MgCl, 3 MgATP, and 5 Hepes at pH 7.2; and was kept on ice. The solutions are described in Contreras J E, et al., Cell Communication and Adhesion (2003), 10:245-249. To resolve single currents in whole-cell configuration, cells with low capacitance (<10 pF) and high resistance pipettes ([…]) with a seal resistance of (>5 GOhm) were selected for recording and analysis.

[5] = tested on: Cx43 hemichannel and pannexin channel mediated ATP release from hCMVEC cells; experiment: In vitro ischaemia injury ATP assay; format: cell-based, human
Method: (§2) Using an in vitro ischemia injury model, the Cx43 hemichannel and pannexin channel mediated ATP release was differentiated using the connexin hemichannel blocking mimetic peptide5 at 100 μM concentration (S. J. O'Carroll, et al., Cell communication & adhesion 15, 27 (May, 2008)) and 1 mM Probenecid (W. R. Silverman et al., The Journal of biological chemistry 284, 18143 (Jul. 3, 2009)).
Human cerebral microvascular endothelial cells (hCMVEC) were trypsinised (TrypLE Express, Life technologies) and plated at a density of 0.025×10^6 cells per well in a collagen-coated 12-well plate (1 μg/cm2) a day prior to the experiment. Cells were incubated in culture medium overnight. Hypoxic, acidic, ion-shifted Ringer injury solution that mimics ionic concentrations and acid-base shifts of the interstitial space in hypoxic-ischemic brains (A. Bondarenko, et al., Glia 34, 143 (Apr. 15, 2001)) was used to trigger hemichannel opening. The injury solution (in mM): 38 NaCl, 13 NaHCO3, 3 Na-gluconate, 65 K-gluconate, 38 NMDG-Cl, 1 NaH2PO4, 1.5 MgCl2, was bubbled in N2 gas (>99% purity, 20 L/min) for 5 minutes and pH adjusted to 6.6 using 5 M HCl. Control solution that mimics physiological conditions contained (in mM): 124 NaCl, 3 KCl, 26 NaHCO3, […], 1 NaH2PO4, 1.3 CaCl2, 1.5 MgCl2, and 10 Glucose, and pH 7.4 was adjusted using 5 M HCl (Bondarenko, 2001). […] Following a 2-hour injury the solutions were immediately placed on ice. In the injury and reperfusion model, hCMVEC cells were incubated in 500 μL of normal solution or injury solution for 2 hours at 37° C. in 95% O2 and 5% CO2. Following 2 hour injury, the solutions were discarded and replaced with 500 μL of the normal solution, or Tonabersat (10 μM) dissolved in normal solution, and were incubated for 2 hours at 37° C. in 95% O2 and 5% CO2. These solutions were also then immediately placed on ice. Peptide5 (100 μM)+/−Probenecid (1 mM) were used as controls for both injury and injury-reperfusion models. ATP concentration in the samples was determined using a Luciferin/luciferase bioluminescence reaction (ATP Determination Kit, Molecular Probes) and detected using a luminescence plate reader (VICTOR X, Perkin Elmer #2030-0010). Standard curves were generated in each experiment from an ATP standard (500 nM) to quantify the concentration of ATP in the test samples. The data is presented as mean±standard error relative to the injury or injury-reperfusion control. Statistically significant differences between samples were identified using one-way analysis of variance and Tukey's multiple comparisons test.

[6] = tested on: hCMVEC cells; experiment: Scrape load assay (Lucifer yellow dye transfer); format: cell-based, human; conditions: broad spectrum gap-junction blocker, concentration not given
Method: In the below Examples 2, 4, 5, 8 and 10 using human cerebral microvascular endothelial cells (hCMVEC), cells were prepared by growing them in collagen coated (30 μg/mL) T25 or T75 flasks maintained in Medium M199 supplemented with 10% FCS, 1 μg/mL hydrocortisone, 3 ng/mL hFGF, 1 ng/mL hEGF, 10 μg/mL heparin, 1× penicillin streptomycin neomycin (Life Technologies), and cAMP (100 μL 100% cAMP to 100 mL media). Cells were maintained at 37° C. with 95% O2 and 5% CO2.
In this Example, human cerebral microvascular endothelial cells (hCMVEC) were grown in collagen coated (1 μg/mL) T25 flasks maintained in Medium M199 supplemented with 10% FBS, 1 μg/mL hydrocortisone, 3 ng/mL hFGF, 1 ng/mL hEGF, 10 μg/mL heparin and cAMP (100 μL 100% cAMP to 100 mL media) in a humidified atmosphere at 37° C. with 5% CO2. One day prior to experimentation, these cells were trypsinized and plated at a density of 4×10^5 cells/well in a collagen-coated 12 well-plate in the same medium. For treatments, cells were cultured in the presence of peptide5, a control gap junction channel blocker (carbenoxolone), or tonabersat for the respective time intervals prior to scrape dye loading. The blockers were also present in the respective scrape loading solutions.
For scrape loading the hCMVEC cells were washed three times with phosphate buffered saline (PBS) (without divalent cations). A solution of PBS+0.05% lucifer yellow was added to cells. The cells then received a scrape to the monolayer using a size 10 carbon steel surgical blade and incubated in the dark at 37° C. with 5% CO2 for 5 minutes. The cells were washed with PBS four times and then 1 mL of PBS added for fluorescent microscopy.
The live cells were then imaged on a Nikon TE2000E fluorescent microscope whilst maintained in a chamber heated to 37° C. with 5% CO2. Three images pairs were obtained at 10× magnification for each of a phase contrast image to view total cells and a fluorescent image to visualize Lucifer yellow using 488 nm excitation and a GFP filter block. Gap junctional communication was determined by counting the number of Lucifer yellow positive cells and presented as a percentage to the positive cells of the control group. Data was graphed as mean+standard error of the mean using Prism v5.02 software. Significance was determined through students two-tailed, unpaired, T Tests. *=p<0.05, **=[…], ***=p<0.001.
An in vitro scrape-loading assay with extracellular Lucifer Yellow (LY), a fluorescent dye that is transferred only through coupled GJs was performed to test whether Tonabersat inhibits GJ communication (M. H. el-Fouly, et al., Experimental cell research 168, 422 (February, 1987)). A single scrape wound was made to a confluent monolayer of hCMVEC cells to enable LY dye to gain access to the cytoplasm of cells at the edge of the wounded region and allow the dye to transfer to adjacent cells through GJs.

[7] = bovine
[8] = tested on: Cx43 hemichannel and pannexin channel mediated ATP release from hCMVEC cells; experiment: In vitro ischaemia injury-reperfusion ATP assay; format: cell-based, human; conditions: 2 h, 1000 µM
Method: as §2
Human cerebral microvascular endothelial cells (hCMVEC) were trypsinised (TrypLE Express, Life technologies) and plated at a density of 0.025×10^6 cells per well in a collagen-coated 12-well plate (1 μg/cm2) a day prior to the experiment. Cells were incubated in culture medium overnight. Hypoxic, acidic, ion-shifted Ringer injury solution that mimics ionic concentrations and acid-base shifts of the interstitial space in hypoxic-ischemic brains (A. Bondarenko, et al., Glia 34, 143 (Apr. 15, 2001)) was used to trigger hemichannel opening. […] ATP concentration in the samples was determined using a Luciferin/luciferase bioluminescence reaction (ATP Determination Kit, Molecular Probes) and detected using a luminescence plate reader (VICTOR X, Perkin Elmer #2030-0010). Standard curves were generated in each experiment from an ATP standard (500 nM) to quantify the concentration of ATP in the test samples. […]

T1 sequence (P17302 2-382 limits assumed): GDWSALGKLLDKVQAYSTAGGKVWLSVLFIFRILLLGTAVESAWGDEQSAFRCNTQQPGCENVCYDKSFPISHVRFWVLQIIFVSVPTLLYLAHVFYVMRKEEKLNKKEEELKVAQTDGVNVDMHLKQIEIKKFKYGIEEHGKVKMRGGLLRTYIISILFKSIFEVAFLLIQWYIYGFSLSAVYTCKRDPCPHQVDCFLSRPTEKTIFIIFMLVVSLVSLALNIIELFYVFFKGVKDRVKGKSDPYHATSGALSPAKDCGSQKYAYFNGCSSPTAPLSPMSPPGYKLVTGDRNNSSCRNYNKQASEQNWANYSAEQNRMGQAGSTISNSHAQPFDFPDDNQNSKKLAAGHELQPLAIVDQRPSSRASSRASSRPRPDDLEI
Chain of Cxn43 (P08050 2-382 limits assumed): as the sequence (P17302 2-382 limits assumed) above, with D123E, I163V, K242R, S250T, A252P, A256S, Q262P, S343A, L346V counted along it

For “C12-C12 Cxn43 MP: connexin 43 modulator peptide conjugated at the N terminus to two dodecyl groups, SEQ ID NO: 237 (didodecyl-VDCFLSRPTEKT)”, the Cxn43 spot counts [1] was “reduced moreso”, the vessel leak [2] was “reduction in vessel leak” and the RGC survival [3] was “over 93%”.

In the case of `CC1(C)[C@@H](OC(=O)CCC(=O)O)CC[C@]2(C)[C@H]3C(=O)C=C4[C@@H]5C[C@@](C)(C(=O)O)CC[C@]5(C)CC[C@@]4(C)[C@]3(C)CC[C@@H]12` [Carbenoxolone], the Connexin43 hemichannel activity [4] is reported as “virtually complete hemichannel block”, the “level of the inhibition of ATP release” value ([5]; ischemic injury) is reported as 65% and the “LY positive cells compared to control” value [6] is reported as 77.8±7.4%.

Molecule `CC(C)C[C@H](NC(=O)[C@H](Cc1ccccc1)NC(=O)[C@H](CS)NC(=O)[C@H](CC(=O)O)NC(=O)[C@@H](N)C(C)C)C(=O)N[C@@H](CO)C(=O)N[C@@H](CCCNC(=N)N)C(=O)N1CCC[C@H]1C(=O)N[C@H](C(=O)N[C@@H](CCC(=O)O)C(=O)N[C@@H](CCCCN)C(=O)N[C@H](C(=O)O)[C@@H](C)O)[C@@H](C)O` [Peptide5] (H-VDCFLSRPTEKT-OH) has a half-life [7] of ~2 h.

With `CCCN(CCC)S(=O)(=O)c1ccc(C(=O)O)cc1` [Probenecid, p-[Dipropylsulfamoyl]benzoic acid] the “ATP release, percentage of the injury-reperfusion (IR) control” value [8] was 99.3±4.4% and the “total extracellular ATP release, percentage of the injury control” value ([5]; 2-hour injury, 100 μM Peptide5, 1 mM Probenecid, alone or combined) was 83.1±4.5%.
